Data taken from doi:10.1101/2025.07.01.658226v1 (biorxiv, 2025).

Molecular target: T1, SyHR (Synechocystis sp. PCC 7509, UniProt A0A9X9ZA75)
T1 sequence (A0A9X9ZA75 1-234): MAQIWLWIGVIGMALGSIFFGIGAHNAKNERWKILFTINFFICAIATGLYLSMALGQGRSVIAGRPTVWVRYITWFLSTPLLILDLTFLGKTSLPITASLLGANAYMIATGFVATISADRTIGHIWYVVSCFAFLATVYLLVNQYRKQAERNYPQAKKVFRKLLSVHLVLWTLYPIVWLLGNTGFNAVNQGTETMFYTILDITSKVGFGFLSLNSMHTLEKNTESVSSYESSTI
Experiment: absorption spectral shift titration, Hill fit
Assay type: binding

| Kd [µM] | Compound |
| --- | --- |
| 210 ± 30 | I [d, I^−] |
| 110 ± 20 | Br [b, Br^−] |
| 280 ± 50 | Cl [a, Cl^−] |

| Compound | Kd [µM] |
| --- | --- |
| O=[N+]([O-])O [c, NO3^−] | 6150 ± 750 |
